Ten molecules from ChEMBL document CHEMBL1130452, “L-373,890, An achiral, noncovalent, subnanomolar thrombin inhibitor” (Bioorg Med Chem Lett, 1997) can be followed below.

For one assay, the target named is Serine protease 1 (Homo sapiens, UniProt P07477). In words: Binding affinity against human trypsin.
In assay [1] the target is Tissue-type plasminogen activator (Homo sapiens, UniProt P00750). The assay can be described thus: Binding affinity against serine protease Tissue type plasminogen activator.
In a further assay the target is Plasma kallikrein (Homo sapiens, UniProt P03952). The assay can be described thus: Binding affinity against serine protease plasma kallikrein. The class given is cell-free.
The target of a further assay is Chymotrypsinogen A (Bos taurus, UniProt P00766). The assay can be described thus: Binding affinity against serine protease […]. Type of assay: cell-free.
Assay [2] addresses Vitamin K-dependent protein C (Homo sapiens, UniProt P04070). In words: Binding affinity against serine protease Activated protein C.
A further assay deals with Plasminogen (Rattus norvegicus, UniProt Q01177). The assay can be described thus: Binding affinity against serine protease plasmin.
For assay [3], the target named is T1, Prothrombin (Homo sapiens, UniProt P00734). The assay can be described thus: Binding affinity against human thrombin.
For assay [4], the target named is T1, Prothrombin. In words: Binding affinity was evaluated against human thrombin.

Structures are written as SMILES.

Serine protease 1, sequence (P07477 whole entry): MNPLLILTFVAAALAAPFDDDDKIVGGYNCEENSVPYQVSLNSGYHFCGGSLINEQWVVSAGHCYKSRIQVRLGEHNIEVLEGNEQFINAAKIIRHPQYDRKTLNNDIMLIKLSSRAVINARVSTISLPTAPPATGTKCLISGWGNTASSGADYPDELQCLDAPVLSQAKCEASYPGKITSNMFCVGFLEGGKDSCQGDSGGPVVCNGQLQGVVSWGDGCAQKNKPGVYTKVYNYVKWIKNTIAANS
Plasminogen, sequence (Q01177 97-581 limits assumed): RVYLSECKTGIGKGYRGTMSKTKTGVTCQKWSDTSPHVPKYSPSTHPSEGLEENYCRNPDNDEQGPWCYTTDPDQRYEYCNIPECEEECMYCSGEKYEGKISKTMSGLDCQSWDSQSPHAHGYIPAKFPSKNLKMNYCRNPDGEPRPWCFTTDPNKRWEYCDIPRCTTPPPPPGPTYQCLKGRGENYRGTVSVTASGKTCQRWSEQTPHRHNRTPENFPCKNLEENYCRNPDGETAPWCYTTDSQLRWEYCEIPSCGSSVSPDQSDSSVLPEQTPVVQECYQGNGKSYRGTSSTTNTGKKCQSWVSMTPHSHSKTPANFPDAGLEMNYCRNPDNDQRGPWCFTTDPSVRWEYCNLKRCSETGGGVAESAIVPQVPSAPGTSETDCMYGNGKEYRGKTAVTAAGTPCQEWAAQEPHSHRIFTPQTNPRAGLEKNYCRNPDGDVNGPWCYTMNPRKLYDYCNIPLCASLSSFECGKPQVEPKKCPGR
Plasminogen, sequence (Q01177 582-812 limits assumed): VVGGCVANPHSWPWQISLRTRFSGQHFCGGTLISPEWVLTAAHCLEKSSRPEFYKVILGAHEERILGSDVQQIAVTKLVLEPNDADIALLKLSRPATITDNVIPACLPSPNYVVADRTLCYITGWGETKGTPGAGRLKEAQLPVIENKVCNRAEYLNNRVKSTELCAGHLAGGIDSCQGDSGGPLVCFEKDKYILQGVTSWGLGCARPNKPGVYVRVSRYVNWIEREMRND
Plasma kallikrein, sequence (P03952 20-390 limits assumed): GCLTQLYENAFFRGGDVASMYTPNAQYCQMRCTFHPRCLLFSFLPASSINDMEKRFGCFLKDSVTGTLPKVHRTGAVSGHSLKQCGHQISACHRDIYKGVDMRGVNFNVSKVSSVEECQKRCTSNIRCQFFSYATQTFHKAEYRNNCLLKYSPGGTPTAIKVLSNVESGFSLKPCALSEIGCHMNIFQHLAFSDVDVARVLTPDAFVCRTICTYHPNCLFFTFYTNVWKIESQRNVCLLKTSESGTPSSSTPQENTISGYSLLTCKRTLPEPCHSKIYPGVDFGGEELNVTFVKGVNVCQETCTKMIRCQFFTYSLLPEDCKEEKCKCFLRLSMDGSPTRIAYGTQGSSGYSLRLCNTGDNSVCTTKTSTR
Plasma kallikrein, sequence (P03952 391-638 limits assumed): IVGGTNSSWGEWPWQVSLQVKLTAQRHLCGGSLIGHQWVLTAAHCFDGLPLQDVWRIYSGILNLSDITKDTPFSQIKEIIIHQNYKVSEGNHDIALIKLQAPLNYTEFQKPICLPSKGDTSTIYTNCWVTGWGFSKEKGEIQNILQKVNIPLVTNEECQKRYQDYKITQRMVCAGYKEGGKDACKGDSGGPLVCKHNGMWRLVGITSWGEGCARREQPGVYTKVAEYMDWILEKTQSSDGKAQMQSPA
Tissue-type plasminogen activator, sequence (P00750 whole entry): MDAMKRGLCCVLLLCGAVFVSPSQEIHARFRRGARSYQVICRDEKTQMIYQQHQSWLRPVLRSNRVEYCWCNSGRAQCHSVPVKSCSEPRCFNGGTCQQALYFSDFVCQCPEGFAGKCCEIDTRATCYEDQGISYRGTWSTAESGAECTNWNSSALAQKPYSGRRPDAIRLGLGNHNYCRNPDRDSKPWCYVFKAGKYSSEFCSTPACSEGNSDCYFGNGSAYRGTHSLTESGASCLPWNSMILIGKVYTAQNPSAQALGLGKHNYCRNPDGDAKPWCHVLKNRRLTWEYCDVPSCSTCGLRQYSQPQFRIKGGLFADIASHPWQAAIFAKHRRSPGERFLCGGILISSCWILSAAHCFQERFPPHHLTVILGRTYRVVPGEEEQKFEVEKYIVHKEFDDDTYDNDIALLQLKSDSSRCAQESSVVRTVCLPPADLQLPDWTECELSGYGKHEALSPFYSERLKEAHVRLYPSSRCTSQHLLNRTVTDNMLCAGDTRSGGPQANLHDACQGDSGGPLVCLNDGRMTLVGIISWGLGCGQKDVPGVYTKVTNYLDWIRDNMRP
Vitamin K-dependent protein C, sequence (P04070 43-197 limits assumed): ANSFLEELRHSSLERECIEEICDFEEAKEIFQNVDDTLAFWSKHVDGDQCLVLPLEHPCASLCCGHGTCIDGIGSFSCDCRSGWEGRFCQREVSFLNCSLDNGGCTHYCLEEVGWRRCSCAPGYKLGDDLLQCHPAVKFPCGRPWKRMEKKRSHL
Vitamin K-dependent protein C, sequence (P04070 212-461 limits assumed): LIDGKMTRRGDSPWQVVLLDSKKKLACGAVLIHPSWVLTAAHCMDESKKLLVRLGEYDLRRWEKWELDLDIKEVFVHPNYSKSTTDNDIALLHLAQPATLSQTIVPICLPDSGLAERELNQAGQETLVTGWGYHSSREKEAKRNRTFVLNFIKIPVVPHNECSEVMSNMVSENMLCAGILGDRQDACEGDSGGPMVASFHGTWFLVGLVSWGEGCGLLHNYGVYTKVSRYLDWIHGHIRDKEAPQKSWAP

`Cc1ccc(NS(=O)(=O)Cc2ccccc2)c(=O)n1CC(=O)NC[C@H]1CC[C@H](N)CC1`: the Ki at Serine protease 1 was 3000 nM.

In the case of `Cc1ccc(NS(=O)(=O)Cc2ccccc2)c(=O)n1CC(=O)NCC1CCN(C(=N)N)CC1`, the Ki in assay [1] was > 20000 nM; on Serine protease 1, 570 nM; at Plasma kallikrein, > 20000 nM; on Chymotrypsinogen A, > 20000 nM; in assay [2], > 20000 nM; at Plasminogen, > 20000 nM.

As to `Cc1ccc(NC(=O)CCc2ccccc2)c(=O)n1CC(=O)NCC1CCN(C(=N)N)CC1`, the Ki is 940 nM at Serine protease 1 and 95 nM on Prothrombin [3].

`CN[C@H](Cc1ccccc1)C(=O)N1CCCC1C(=O)NC[C@H]1CC[C@H](N)CC1` (some centres not stated) gave a Ki on Prothrombin [4] of 5 nM.

For `Cc1ccc(S(=O)(=O)Nc2ccc(C)n(CC(=O)NC[C@H]3CC[C@H](N)CC3)c2=O)cc1`, the Ki was determined as 2100 nM at Serine protease 1 and 47 nM at Prothrombin [3].

On to `Cc1ccc(NC(=O)c2ccccc2)c(=O)n1CC(=O)NCC1CCN(C(=N)N)CC1`, for which the Ki on Serine protease 1 came to 1500 nM; on Prothrombin [3] it was 690 nM.

Take `Cc1ccc(S(=O)(=O)Nc2ccc(C)n(CC(=O)NCC3CCN(C(=N)N)CC3)c2=O)cc1`: the results for the Ki on Serine protease 1 and at Prothrombin [3] were 140 nM and 29 nM, respectively.

Take `Cc1ccc(NC(=O)CC(c2ccccc2)c2ccccc2)c(=O)n1CC(=O)NCC1CCN(C(=N)N)CC1`: the Ki on Serine protease 1 was 890 nM; at Prothrombin [3], 166 nM.

Take `Cc1ccc(NC(=O)OCc2ccccc2)c(=O)n1CC(=O)NCC1CCN(C(=N)N)CC1`: the Ki was found to be 350 nM at Serine protease 1 and 77 nM at Prothrombin [3].

As for `Cc1ccc(NCCc2ccccc2)c(=O)n1CC(=O)NC[C@H]1CC[C@H](N)CC1`, the Ki at Serine protease 1 was 2200 nM; on Prothrombin [3], 47 nM.
